Experimental data from publication PMC6757289, “Design and Characterization of SGK3-PROTAC1, an Isoform Specific SGK3 Kinase PROTAC Degrader” (ACS Chemical Biology, 2019).

Columns and labels:
S6K1 = S6K1 (Homo sapiens, UniProt P23443); assay: S6K1 protein level in HEK293 cells, immunoblot; type: cell-based; design: reduced endogenous SGK isoform or S6K1 expression when administered to HEK293 cells for 48 h; endogenous in cells; host or cells: HEK293
Protocol: A medium length linker composed of three PEG units was used in the first instance (Figure 1B and C). […] After 48 h of PROTAC treatment, cell lysates were analyzed by immunoblot analysis, and protein expression under each condition was quantified relative to the DMSO-only control. […] DAT1 reduced SGK3 expression by 60% at 1 μM and 75% at 10 μM after 48 h (Figure 1D). […] As expected, inhibition of CUL2 neddylation by means of the inhibitor MLN4924 (3 μM) or proteasome inhibition (MG132, 50 μM) blocked DAT1-induced degradation of SGK3 (Figure S1C).
All cell treatments were carried out as described in figure legends, to a final DMSO concentration of 0.1% (v/v). Lysates were quantified. Immunoblotting was performed using standard procedures, described in brief below. Lysate concentration was quantified by Bradford Assay, and 10 μg of lysate was loaded in the LDS sample buffer for SDS-PAGE electrophoresis on Novex 4–12% Bis–Tris gels. Proteins were electrophoretically transferred onto nitrocellulose membranes (Amersham Protran 0.45 μm NC; GE Healthcare) at 80 V for 80 min on ice in transfer buffer. Transferred membranes were blocked with 5% (w/v) nonfat dry milk dissolved in TBS-T [20 mM Tris/HCl, pH 7.5, 150 mM NaCl, and 0.1% (v/v) Tween 20] at RT for 30 min, before incubation with the primary antibody overnight at 4 °C. The signal was produced with near-infrared secondary antibodies and detected using a Licor Biosciences Odyssey System, and the signal was quantified in Image Studio Lite.

SGK1 = target: T1, SGK1 (Homo sapiens, UniProt O00141); assay: SGK1 degradation in JIMT1 cells, immunoblot; type: cell-based; conditions: JIMT1, up to 3 μM
T1 sequence (O00141 1-431): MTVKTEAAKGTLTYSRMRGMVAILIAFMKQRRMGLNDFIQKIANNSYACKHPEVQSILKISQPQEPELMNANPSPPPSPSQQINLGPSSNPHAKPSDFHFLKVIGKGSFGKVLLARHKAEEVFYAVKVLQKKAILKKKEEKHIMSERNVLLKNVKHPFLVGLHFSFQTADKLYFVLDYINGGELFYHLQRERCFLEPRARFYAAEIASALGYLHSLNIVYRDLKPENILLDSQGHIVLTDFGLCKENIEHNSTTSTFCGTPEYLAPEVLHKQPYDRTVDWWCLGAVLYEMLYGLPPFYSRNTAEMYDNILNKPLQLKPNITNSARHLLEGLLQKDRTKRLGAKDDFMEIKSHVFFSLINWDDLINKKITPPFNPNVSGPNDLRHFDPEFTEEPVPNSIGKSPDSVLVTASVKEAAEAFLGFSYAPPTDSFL
Protocol: Figure 3 Characterization of cellular activities of SGK3-PROTAC1 and cisSGK3-PROTAC1. (A) HEK293 cells were first treated for 8 h with 0.03–3 μM SGK3-PROTAC1 and cisSGK3-PROTAC1. One hour before lysis, cells were treated with 3 μM AZD5363. Lysates were subjected to immunoblot analysis with the indicated antibodies. […] Lysates were subjected to immunoblot analysis with the indicated antibodies. (C) HEK293 cells were treated for up to 48 h with SGK3-PROTAC1 (0.3 μM), and lysates were analyzed by immunoblot analysis using the indicated antibodies. (D) HEK293 cells were treated for 24 h with SGK3-PROTAC1. Cells were washed three times with DMEM to wash out the compound, and recovery of SGK3 expression protein was analyzed by immunoblot analysis. (E–G) As in A except that CAMA-1 (E), ZR-75-1 (F), and JIMT-1 (G) cells were employed rather than HEK293 cells. […]
All cell treatments were carried out as described in figure legends, to a final DMSO concentration of 0.1% (v/v). Lysates were quantified. […] Lysate concentration was quantified by Bradford Assay, and 10 μg of lysate was loaded in the LDS sample buffer for SDS-PAGE electrophoresis on Novex 4–12% Bis–Tris gels. […] The signal was produced with near-infrared secondary antibodies and detected using a Licor Biosciences Odyssey System, and the signal was quantified in Image Studio Lite.

S6K1, sequence (P23443 whole entry, canonical isoform): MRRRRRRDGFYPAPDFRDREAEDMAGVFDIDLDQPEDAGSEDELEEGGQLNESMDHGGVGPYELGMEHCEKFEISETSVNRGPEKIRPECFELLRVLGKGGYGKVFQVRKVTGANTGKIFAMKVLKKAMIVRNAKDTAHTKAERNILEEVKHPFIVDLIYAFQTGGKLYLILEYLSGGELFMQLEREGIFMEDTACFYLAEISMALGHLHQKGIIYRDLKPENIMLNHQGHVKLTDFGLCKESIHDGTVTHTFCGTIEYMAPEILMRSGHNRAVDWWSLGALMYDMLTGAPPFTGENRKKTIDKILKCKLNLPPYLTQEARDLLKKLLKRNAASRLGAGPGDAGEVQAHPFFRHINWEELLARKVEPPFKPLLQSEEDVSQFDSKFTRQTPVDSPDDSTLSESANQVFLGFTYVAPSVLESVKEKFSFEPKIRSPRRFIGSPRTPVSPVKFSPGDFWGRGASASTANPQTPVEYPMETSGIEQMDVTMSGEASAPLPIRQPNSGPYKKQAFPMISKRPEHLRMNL

| Compound | S6K1 level (S6K1; HEK293, 48 h, up to 10 μM) | S6K1 degradation (S6K1; HEK293, 8 h, doses of up to 1 μM) | S6K1 level (S6K1; HEK293, 48 h, 0.1 μM) | S6K1 degradation (S6K1; HEK293, 48 h, 1–10 μM) | degradation of SGK1 (SGK1) |
| --- | --- | --- | --- | --- | --- |
| Cc1ccc(F)c(S(=O)(=O)Nc2ccc(-c3nc(OC[C@H]4CN(CCOCCOCCOCC(=O)N[C@H](C(=O)N5C[C@H](O)C[C@H]5C(=O)NCc5ccc(-c6scnc6C)cc5)C(C)(C)C)CCO4)c4cn[nH]c4n3)cc2)c1 [DAT1] | not significantly impacted |  |  |  |  |
| Cc1ccc(F)c(S(=O)(=O)Nc2ccc(-c3nc(OC[C@H]4CN(CCCCCCOCCOCCOCC(=O)N[C@H](C(=O)N5C[C@H](O)C[C@H]5C(=O)NCc5ccc(-c6scnc6C)cc5)C(C)(C)C)CCO4)c4cn[nH]c4n3)cc2)c1 [SGK3-PROTAC1] |  | no degradation | without effecting | moderate degradation | failed to induce degradation of SGK1 |
